Experimental data: publication PMC3376645 (Chemical Communications (Cambridge, England), 2012)

Tests used:
[1] = approximate; stated without experiment or reference; cited from earlier work
[2] = test system: thrombin; assay: LC-MS analysis of aliquots to determine conversion; type: biochemical; conditions: 1 mM PMSF
[3] = Gelation screening in buffer by heat/cool method; type: physicochemical; conditions: buffer 100 mM PBS, 10% DMSO, pH = 7.2

Q: With `Nc1ccc(C(=O)O)cc1` [PABA, p-aminobenzoic acid] as the molecule, how does the pKa [1] read?
A: The pKa was roughly 5.

Q: For `O=S(=O)(F)Cc1ccccc1` [PMSF], which “effect of thrombin inhibitor on enzymatic cleavage of compound 4” value [2] is on record?
A: Its value is “decrease in the rate of enzymatic cleavage”.

Q: Which “critical gel concentration (cgc)” value [3] does the source give for PABA-F5Phe-NH2 [Compound 1] here?
A: Its value is 54 mM.
